Experimental data taken from US9457041B2, “Controlled release nanoparticles and methods of use” (NDSU Research Foundation, priority 2014, dated 2016).

What was measured:
recombinant human MMP-9 = recombinant human MMP-9 (Homo sapiens, UniProt P14780); test: CD spectroscopy of triple helicity of nanovesicle-incorporated lipopeptide; format: biochemical
Source text: The lipopeptide LP [CH3(CH2)16CONH-[…](GPO)4GG-COOH] was synthesized by employing microwave assisted solid phase peptide synthesizer (Liberty, CEM Corporation, Matthews, S.C.) by following the protocol previously established in our laboratory (Pompella et al., Biochem pharm 2003, 66 (8), 1499-1503). The lipopeptide was purified by reverse phase HPLC (Shimadzu Scientific Instruments) using a diphenyl semi-preparatory column (Grace Vydac, 300 Å pore diameter silica, 5 μm particle size, 10 mm×250 mm) as the stationary phase. A linear gradient (0-70%) of acetonitrile (with 0.1% trifluoroacetic acid) in water (with 0.1% trifluoroacetic acid) was used at a flow rate of 8 mL/min over 60 min. The chromatogram was recorded at 235 nm using a UV detector. After freeze drying the eluents, the peptide was characterized employing MALDI-TOF mass spectrometry with an AB 4800 MALDI TOF/TOF mass analyzer. An observed mass of 2332.3 Da in MALDI spectra confirmed the LP (calculated mass: 2332.2 Da). The collagen mimetic triple helical structure of the lipopeptide was assessed by CD spectrometry employing a Jasco J-815 CD spectrometer with a quartz cuvette of 1 mm path length. The positive peak at 222 nm and the negative peak at 198 nm confirmed the triple helical structure of collagen mimetic peptide.20 For the CD spectroscopic studies, 32 accumulations were recorded for each spectra.

MIAPaCa-2 cells = test: Alamar Blue assay with a monolayer cell culture; format: cell-based; conditions: Homo sapiens, MIA PaCa-2, MIAPaCa-2 monolayer, 10 μM gemcitabine or equivalent encapsulated, 72 hours
Description: (§1) Pancreatic-cancer cell lines PANC-1 and MIAPaCa-2 were obtained from American Type Culture Collection (Manassas, Va.). PANC-1 cells were cultured in RPMI media (without phenol red) that were supplemented with 2% antibiotics (penicillin, streptomycin) and 10% v/v fetal bovine serum. The MIAPaCa-2 cells were cultured in DMEM media that were supplemented with 2% horse serum and 2% antibiotics. All cell lines were grown at 37° C. in a humidified atmosphere containing 5% CO2.
(§2) Cytotoxicity of the encapsulated gemcitabine was measured by treating the PANC-1 and MIAPaCa-2 cells with nanovesicles. The cells were incubated (1,000 per well) in a 96-well plate after trypsinizing the flask and making a cell suspension. RPMI media (100 μL) were added to each well. Cells were allowed to grow for one doubling time. The plate was divided into three groups: control, gemcitabine treated and gemcitabine-encapsulated nanovesicles treated. Six replicates were recorded for each sample. […] The treatment was carried out for 3 days, and cell toxicity was recorded after 72 hours with the Alamar Blue assay by following the supplier's (Life Technologies) protocol. Alamar Blue solution (10 μL) was added to all the wells and incubated for 2 hours, and the absorbance was recorded at 585 nm for cytotoxicity calculation (FIG. 15).

PANC-1 cells = test: Alamar Blue assay with a monolayer cell culture; format: cell-based; conditions: Homo sapiens, PANC-1 monolayer, 10 μM gemcitabine or equivalent encapsulated, 72 hours
Description: as §1, §2

recombinant human MMP-9, sequence (P14780 94-707): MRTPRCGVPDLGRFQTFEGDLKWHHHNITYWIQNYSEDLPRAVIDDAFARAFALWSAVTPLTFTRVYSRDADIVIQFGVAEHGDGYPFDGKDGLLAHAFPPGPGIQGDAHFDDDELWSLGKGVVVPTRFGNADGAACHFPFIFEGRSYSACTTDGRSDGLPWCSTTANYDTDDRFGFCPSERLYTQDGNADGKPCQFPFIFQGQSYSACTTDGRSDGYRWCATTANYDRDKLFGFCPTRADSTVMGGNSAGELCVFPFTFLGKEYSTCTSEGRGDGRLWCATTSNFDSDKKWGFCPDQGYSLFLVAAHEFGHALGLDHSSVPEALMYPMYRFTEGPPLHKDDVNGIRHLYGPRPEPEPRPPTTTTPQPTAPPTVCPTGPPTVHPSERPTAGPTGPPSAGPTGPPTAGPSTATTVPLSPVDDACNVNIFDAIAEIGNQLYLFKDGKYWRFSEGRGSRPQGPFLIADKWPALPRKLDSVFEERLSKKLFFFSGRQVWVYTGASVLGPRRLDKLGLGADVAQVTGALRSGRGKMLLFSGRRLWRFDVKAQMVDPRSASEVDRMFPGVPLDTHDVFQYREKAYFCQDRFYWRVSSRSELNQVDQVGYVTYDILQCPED

triple helicity of LP (CD) (recombinant human MMP-9; 2 μM recombinant human MMP-9, 60 minutes) | triple helicity of nanovesicle-incorporated LP (CD) (recombinant human MMP-9; GSH (50 μM), 1 hour) | Compound | viability at 10 µM (MIAPaCa-2 cells) [%] | viability at 10 µM (PANC-1 cells) [%]
considerably reduced | unchanged | CH3(CH2)16CONH-GPQGIAGQR(GPO)4GG-COOH [LP] | – | –
– | – | Nc1ccn([C@@H]2O[C@H](CO)[C@@H](O)C2(F)F)c(=O)n1 [gemcitabine] | 45 to 50 | 30 to 35
